In US8436035B2, “Organic compounds” (Novartis AG, priority 2006, dated 2013):

Key:
[1] = target: T1, aldosterone synthase (CYP11B2) (Homo sapiens, UniProt P19099); test: in vitro aldosterone synthase inhibition, aldosterone production in Ang II-stimulated NCI-H295R cells; format: cell-based; conditions: read-out: AS IC50
T1 construct: host or cells: NCI-H295R
T1 sequence (P19099 25-503): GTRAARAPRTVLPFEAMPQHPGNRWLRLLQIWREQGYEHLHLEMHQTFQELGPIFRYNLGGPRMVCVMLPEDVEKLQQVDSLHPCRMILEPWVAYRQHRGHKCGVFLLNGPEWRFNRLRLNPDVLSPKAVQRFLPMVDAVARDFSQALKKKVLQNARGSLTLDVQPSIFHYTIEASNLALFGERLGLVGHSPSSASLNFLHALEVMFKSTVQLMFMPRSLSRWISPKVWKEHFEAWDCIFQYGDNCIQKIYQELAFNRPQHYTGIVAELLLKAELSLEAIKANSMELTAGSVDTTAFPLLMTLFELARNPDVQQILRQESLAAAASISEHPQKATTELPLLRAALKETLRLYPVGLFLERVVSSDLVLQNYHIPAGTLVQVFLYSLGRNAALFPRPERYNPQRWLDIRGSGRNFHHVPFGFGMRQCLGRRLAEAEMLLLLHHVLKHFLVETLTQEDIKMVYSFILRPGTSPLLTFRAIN
From the text: In particular, the aldosterone synthase inhibitory activities in vitro can be determined by the following assay.
Human adrenocortical carcinoma NCI-H295R cell line is obtained from American Type Culture Collection (Manassas, Va.). Insulin/transferrin/selenium (ITS)-A supplement (100×), DMEM/F-12, antibiotic/antimycotic (100×), and fetal calf serum (FCS) are purchased from Gibco (Grand Island, N.Y.). Anti-mouse PVT scintillation proximity assay (SPA) beads and NBS 96-well plates are obtained from Amersham (Piscataway, N.J.) and Corning (Acton, Mass.), respectively. Solid black 96-well flat bottom plates were purchased from Costar (Corning, N.Y.). Aldosterone and angiotensin (Ang II) are purchased from Sigma (St. Louis, Mo.). D-[1,2,6,7-^3H(N)]aldosterone was acquired from PerkinElmer (Boston, Mass.). Nu-serum was a product of BD Biosciences (Franklin Lakes, N.J.).
For in vitro measurement of aldosterone activity, human adrenocortical carcinoma NCI-H295R cells are seeded in NBS 96-well plates at a density of 25,000 cells/well in 100 μl of a growth medium containing DMEM/F12 supplemented with 10% FCS, 2.5% Nu-serum, 1 μg ITS/ml, and 1× antibiotic/antimycotic. The medium is changed after culturing for 3 days at 37° C. under an atmosphere of 5% CO2/95% air. On the following day, cells are rinsed with 100 μl of DMEM/F12 and incubated with 100 μl of treatment medium containing 1 μM Ang II and a compound at different concentrations in quadruplicate wells at 37° C. for 24 hr. At the end of incubation, 50 μl of medium is withdrawn from each well for measurement of aldosterone production by an RIA using mouse anti-aldosterone monoclonal antibodies.
Measurement of aldosterone activity can also be performed using a 96-well plate format. Each test sample is incubated with 0.02 μCi of D-[1,2,6,7-^3H(N)]aldosterone and 0.3 μg of anti-aldosterone antibody in phosphate-buffered saline (PBS) containing 0.1% Triton X-100, 0.1% bovine serum albumin, and 12% glycerol in a total volume of 200 μl at room temperature for 1 hr. Anti-mouse PVT SPA beads (50 μl) are then added to each well and incubated overnight at room temperature prior to counting in a Microbeta plate counter. The amount of aldosterone in each sample is calculated by comparing with a standard curve generated using known quantities of the hormone.

[2] = target: T2, CYP11B1 (Homo sapiens, UniProt P15538); test: in vitro CYP11B1 inhibition, steroid release from NCI-H295R cells; format: cell-based; conditions: for inhibition at 0.1 µM: NCI-H295R, read-out: 11B1 % I @ 100 nM
T2 construct: Thus, the NCI-H295R cells have Cyp11 B1 (steroid 11 p-hydroxylase); host or cells: NCI-H295R
T2 sequence (P15538 25-503): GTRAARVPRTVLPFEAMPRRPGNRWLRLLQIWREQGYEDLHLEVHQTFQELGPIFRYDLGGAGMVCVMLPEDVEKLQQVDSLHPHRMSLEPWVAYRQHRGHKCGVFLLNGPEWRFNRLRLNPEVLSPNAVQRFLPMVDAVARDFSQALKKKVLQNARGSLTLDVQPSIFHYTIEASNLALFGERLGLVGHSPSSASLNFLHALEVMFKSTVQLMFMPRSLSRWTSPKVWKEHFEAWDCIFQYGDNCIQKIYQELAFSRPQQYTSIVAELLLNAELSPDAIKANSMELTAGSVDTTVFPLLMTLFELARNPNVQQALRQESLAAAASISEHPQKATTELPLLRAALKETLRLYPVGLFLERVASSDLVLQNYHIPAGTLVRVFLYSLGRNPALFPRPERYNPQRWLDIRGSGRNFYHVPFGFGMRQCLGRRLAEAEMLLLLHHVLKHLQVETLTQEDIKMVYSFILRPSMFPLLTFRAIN
From the text: The in vitro inhibitory activities for CYP11B1 can be determined by the following assay.
The cell line NCI-H295R was originally isolated from an adrenocortical carcinoma and has been characterized in the literature through the stimulable secretion of steroid hormones and the presence of the enzymes essential for steroidogenesis. Thus, the NCI-H295R cells have Cyp11 B1 (steroid 11 p-hydroxylase). The cells show the physiological property of zonally undifferentiated human foetal adrenocortical cells which, however, have the capacity to produce the steroid hormones which are formed in the three, phenotypically distinguishable zones in the adult adrenal cortex.
The NCI-H295R cells (American Type Culture Collection, ATCC, Rockville, Md., USA) are grown in Dulbeoco's Modified Eagle'Ham F-12 Medium (DME/F12), which has been I supplemented with Ulroser SF Serum (Soprachem, Cergy-Saint-Christophe, France), insulin, transferrin, selenite (I-T-S, Becton Dickinson Biosciences, Franklin lakes, NJ, USA) and antibiotics in 75 cm^2 cell culture vessels at 37° C. and in a 95% air-5% carbon dioxide atmosphere. The cells are subsequently transferred for colony formation into a 24-well incubation vessel. They are cultivated there in DME/F12 medium, which is now supplemented with 0.1% bovine serum instead of Ultroser SF for 24 hours. The experiment is initiated by cultivating the cells in DME/F12 medium which is supplemented with 0.1% bovine serum albumin and test compound, in the presence or absence of cell stimulants, for 72 hours. The test substance is added in a concentration range from 0.2 nanomolar to […]. Cell stimulants which can be used are angiotensin 11 ([…] or 100 nanomolar), potassium ions (16 millimolar), forskolin (10 micromolar) or a combination of two stimulants.
The excretion of aldosterone, cortisol, corticosterone and estradiol/estrone into the culture medium can be detected and quantified by commercially available, specific monoclonal antibodies in radioimmunoassays in accordance with the manufacturer's instructions.
Inhibition of the release of certain steroids can be used as a measure of the respective enzyme inhibition by the added test compounds. The dose-dependent inhibition of enzymic activity by a compound is calculated by means of an inhibition plot which is characterized by an IC50.
The IC50 values for active test compounds are ascertained by a […] in order to construct inhibition plots without data weighting. The inhibition plot is calculated by fting a 4-parameter logistic function to the raw data points using the least squares method. The equation of the 4-parameter logistic function is calculated as follows: Y=(d−a)/((1+(x/c)b))+a I where: a=minimum data level b=gradient I c=ICED, d=maximum data level x=inhibitor concentration.

Molecule	IC50 [1]	inhibition at 0.1 µM [2]	11B1 % I @ 100 nM [2]
Cc1noc(-c2cncn2C2c3ccccc3CC2(C)C)n1 (stereo not drawn) [Compound 21, 5-[3-(2,2-Dimethyl-indan-1-yl)-3H-imidazol-4-yl]-3-methyl-[1,2,4]oxadiazole]	0.129 µM	98%	
CC(C)OC(=O)c1cncn1C1CCOc2ccccc21 (single isomer, unassigned) [Compound 16, 3-Chroman-4-yl-3H-imidazole-4-carboxylic acid isopropyl ester]	0.15 µM		
CCC(=O)Oc1cncn1C1CCCc2ccccc21 (stereo not drawn) [Compound 2, Propionic acid 3-(1,2,3,4-tetrahydro-naphthalen-1-yl)-3H-imidazol-4-yl ester]	0.021 µM		
COC(=O)c1cncn1C1c2ccccc2OC1(C)C (stereo not drawn) [Compound 25, 3-(2,2-Dimethyl-2,3-dihydro-benzofuran-3-yl)-3H-imidazole-4-carboxylic acid methyl ester]	0.046 µM	96%	
CC(C)OC(=O)c1cncn1C1CCCCc2ccccc21 (stereo not drawn) [Compound 26, 3-(6,7,8,9-Tetrahydro-5H-benzocyclohepten-5-yl)-3H-imidazole-4-carboxylic acid isopropyl ester]	0.005 µM	99%	
CCc1cncn1C1CCC(C)(C)c2ccccc21 (single isomer, unassigned) [Compound 9, 1-(4,4-Dimethyl-1,2,3,4-tetrahydro-naphthalen-1-yl)-5-ethyl-1H-imidazole]	0.006 µM		100%
CC(C)OC(=O)c1cncn1C1CCCc2cc(C3CC3)ccc21 (stereo not drawn) [Compound 7, 3-(6-Cyclopropyl-1,2,3,4-tetrahydro-naphthalen-1-yl)-3H-imidazole-4-carboxylic acid isopropyl ester]	0.268 µM		
CC1(C)Cc2ccccc2C1n1cncc1C(=O)NCCO (stereo not drawn) [Compound 20, 3-(2,2-Dimethyl-indan-1-yl)-3H-imidazole-4-carboxylic acid (2-hydroxy-ethyl)-amide]	0.006 µM		
COC(=O)c1cncn1[C@H]1c2ccccc2[C@@H](O)CC1(C)C (relative stereo) [Compound 12, 3-(cis-4-Hydroxy-2,2-dimethyl-1,2,3,4-tetrahydro-naphthalen-r-1-yl)-3H-imidazole-4-carboxylic acid methyl ester]	0.014 µM		
CC(C)OC(=O)c1cncn1C1CCOc2ccccc21 (single isomer, unassigned) [Compound 15, 3-Chroman-4-yl-3H-imidazole-4-carboxylic acid isopropyl ester]	0.103 µM	65%	
c1ccc(COc2cncn2C2CSCc3ccccc32)cc1 (stereo not drawn) [Compound 18, 5-Benzyloxy-1-isothiochroman-4-yl-1H-imidazole]	0.152 µM		
CC(C)OC(=O)c1cncn1C1CCCc2ccc(C#N)cc21 (stereo not drawn) [Compound 6, 3-(7-Cyano-1,2,3,4-tetrahydro-naphthalen-1-yl)-3H-imidazole-4-carboxylic acid isopropyl ester]	0.197 µM		
CC1(C)Cc2ccccc2C1n1cncc1C(=O)NCc1ccccc1 (stereo not drawn) [Compound 19, 3-(2,2-Dimethyl-indan-1-yl)-3H-imidazole-4-carboxylic acid benzylamide]	0.017 µM		
CC(C)OC(=O)c1cncn1C1CCCc2ccccc21 (single isomer, unassigned) [Compound 1, 3-(1,2,3,4-Tetrahydro-naphthalen-1-yl)-3H-imidazole-4-carboxylic acid isopropyl ester]	0.044 µM	99%	
CC1(C)CSc2ccccc2C1n1ccnc1 (stereo not drawn) [Compound 14, 1-(3,3-Dimethyl-thiochroman-4-yl)-1H-imidazole]	0.125 µM	92%	
COC(=O)c1cncn1C1c2ccccc2C(NCc2ccccc2)CC1(C)C (stereo not drawn) [Compound 13, 3-(4-Benzylamino-2,2-dimethyl-1,2,3,4-tetrahydro-naphthalen-1yl)-3H-imidazole-4-carboxylic acid methyl ester]	0.696 µM	60%	
COC(=O)c1cncn1[C@H]1c2ccccc2[C@@H](O)CC1(C)C (relative stereo) [Compound 11, 3-(cis-4-Hydroxy-2,2-dimethyl-1,2,3,4-tetrahydro-naphthalen-r-1-yl)-3H-imidazole-4-carboxylic acid methyl ester]	0.059 µM		100%
spiro[cyclopentane-1,2′-[3′-(7′-methyl-chroman-4′-yl)-3′H-imidazole-4′-carboxylic acid methyl ester]] [Compound 17]	0.175 µM		100%
CC(C)OC(=O)c1cncn1C1CCCc2ccc(N(C)S(C)(=O)=O)cc21 (stereo not drawn) [Compound 5, 3-(7-Methanesulfonyl-methyl-amino-1,2,3,4-tetrahydro-naphthalen-1-yl)-3H-imidazole-4-carboxylic acid isopropyl ester]	0.352 µM		
CC(=O)Nc1ccc2c(c1)CCCC2n1cncc1C(=O)OC(C)C (stereo not drawn) [Compound 4, 3-(6-Acetylamino-1,2,3,4-tetrahydro-naphthalen-1-yl)-3H-imidazole-4-carboxylic acid isopropyl ester]	0.085 µM		
